Test results reported in patent US9254341B2, “Methods of manufacture of pteroyl-amino acid-fluorescent dyes” (On Target Laboratories, LLC, priority 2013, dated 2016).
“Also recorded” adds a separate entry of the source. One block for each compound: values may come before it.

Assays:
[1] = Stability of OTL-0038 liquid, achiral HPLC; assay type: physicochemical; settings: for Achiral HPLC: Liquid 5 mg per ml, 2 ml fill, PBS, 1 month; for stability of the liquid: 5° C.
Procedure: (§1) Stability data of Pte-L Tyrosine-S0456 (OTL-0038):
At 40° C. the liquid lost 8.6% at 270 nm and 1% at 774 nm. At room temperature the liquid lost about 1.4% at 270 nm and 0.5% at 774 nm.

[2] = tested on: A549 tumor xenografts (folate receptor negative); assay: Whole body imaging and biodistribution in mice bearing folate receptor-negative tumor xenografts; assay type: in vivo
Procedure: (§2) A549 cells (a alveolar basal epithelial carcinoma cell line) were obtained from American type culture collection (Rockville, Md.) and grown as a monolayer using 1640 RPMI medium containing (Gibco, N.Y.) 10% heat-inactivated fetal bovine serum (Atlanta Biological, Ga.) and 1% penicillin streptomycin (Gibco, N.Y.) in a 5% carbon dioxide: 95% air-humidified atmosphere at 37° C. for at least six passages before they were used for the assays.
Athymic female nude (nu/nu) mice (6 weeks old, 18-20 g) were purchased from Harlan Laboratories (Indianapolis, Ind.) and maintained on normal diet (Teklad, Wis.). Animals were housed 5/cage in a barrier, pathogen-free cloaked rack. Autoclaved tap water and food were given as needed. The animals were housed in a sterile environment on a standard 12 hours light-dark cycle for the duration of the study. Mice were identified individually by ear punch. All animal procedures were approved by Purdue Animal Care and Use Committee. Animal care and studies were performed according to national and international guidelines for the humane treatment of animals.
Seven-week-old female nu/nu mice were inoculated subcutaneously with A549 cells (1.0×10^6/mouse in RPMI 1640 medium) on the shoulder. Growth of the tumors was measured in perpendicular directions every 2 days using a caliper (body weights were monitored on the same schedule), and the volumes of the tumors were calculated as 0.5×L×W^2(L=longest axis and W=axis perpendicular to L in millimeters). Once tumors reached between 400 and 500 mm^3 in volume, animals (6 mice/group) were intravenously injected with 10 nmol of OTL-0038 in phosphate buffered saline (100 μL). After 2.5 h, animals were sacrificed by CO2 asphyxiation. Whole body imaging (intact tumor) experiments were then performed using a Caliper IVIS Lumina II Imaging Station with Living Image 4.0 software (PerkinElmer Inc, Mass.). Settings for imaging:-lamp level: medium; excitation: 745 nm; emission: ICG (indocyanine green); epi illumination; binning: 4 (M), FOV=12.5; f-stop=2; acquisition time=1 s.
Following whole body imaging, animals were dissected and selected tissues (heart, lung, liver, spleen, kidneys, stomach, small intestine, large intestine, muscle, skin, tumor) were analyzed for fluorescence activity using IVIS imager as before. Settings for imaging:-lamp level: medium; excitation: 745 nm; emission: ICG; epi illumination; binning: 4 (M), FOV=12.5; f-stop=2; acquisition time=1 s.

[3] = tested on: KB tumor xenografts (folate receptor positive); assay: Comparative whole body imaging and tissue biodistribution with folate derived near IR agents; assay type: in vivo; settings: nude mice, KB tumors
Procedure: as §2, with “KB” for “A549”, “human nasopharyngeal” for “alveolar basal epithelial carcinoma”, “using folate free” for “using”
Athymic female nude mice (5 weeks old, 18-20 g) were purchased from Harlan Laboratories (Indianapolis, Ind.) and maintained on gamma-irradiated folate-deficient special diet (Teklad, Wis.) for at least 2 weeks before the start of the study. Animals were housed 5/cage in a barrier, pathogen-free cloaked rack. […]
(§3) Seven-week-old female nu/nu mice were inoculated subcutaneously with KB cells (1.0×10^6/mouse in folate free RPMI 1640 medium) on the shoulder. Growth of the tumors was measured In perpendicular directions every 2 days using a caliper (body weights were monitored on the same schedule), and the volumes of the tumors were calculated as 0.5×L×W (L=longest axis and W=axis perpendicular to L in millimeters). […]
(§4) Following whole body imaging, animals were dissected and selected tissues (heart, lung, liver, spleen, kidneys, stomach, small intestine, large intestine, muscle, skin, tumor) were analyzed for fluorescence activity using IVIS imager as before. […]

[4] = tested on: KB tumor xenografts (folate receptor positive); assay: Whole body imaging and tissue biodistribution in mice bearing folate receptor-positive tumor xenografts; assay type: in vivo; settings: nude mice, KB tumors, 10 nmol intravenously, 2.5 hours
Procedure: as §2, with “KB” for “A549”, “human nasopharyngeal” for “alveolar basal epithelial carcinoma”, “using folate free” for “using”
Athymic female nude (nu/nu) mice (5 weeks old, 18-20 g) were purchased from Harlan Laboratories (Indianapolis, Ind.) and maintained on gamma-irradiated folate-deficient special diet (Teklad, Wis.) for at least 2 weeks before the start of the study. […]
as §3, with “in” for “In”, “0.5×L×W^2” for “0.5×L×W”
as §4

folate receptors = biological target: T1, folate receptors (Homo sapiens, UniProt P15328); assay: Competitive binding with [3H] folic acid on KB cells that overexpress FR-alpha; settings: for Kd: read-out: dissociation constant (Kd); for Relative binding affinity: relative affinity of folic acid=1, molar ratio required to displace 50% of [3H] folic acid
T1 construct: KB cells that overexpress FR-α were seeded in 24-well (100,000 cells/well) Falcon plates; endogenous in cells; host or cells: KB cells (ATCC), grown in folate-free RPMI 1640
Procedure: as §2, with “KB” for “A549”, “human nasopharyngeal” for “alveolar basal epithelial carcinoma”, “using folate free” for “using”
KB cells that overexpress FR-α were seeded in 24-well (100,000 cells/well) Falcon plates (BD Biosciences, Calif.) and allowed to form monolayers over a period of 12 hours. […] After incubating for 1 hour at 37° C., cells were rinsed with PBS (3×0.5 mL, Gibco, N.Y.) to remove any unbound radioactive materials. After adding 0.25 M sodium hydroxide (0.5 mL) and incubating for 12 hours at 4° C., cells were transferred into individual scintillation vials containing Ecolite scintillation cocktail (3.0 mL, MP Biomedicals, Ohio) and counted in a liquid scintillation analyzer (Packard). The relative binding affinities were calculated using a plot of % cell bound radioactivity versus the log concentration of the test article using GraphPad Prism 4.

[5] = Stability of OTL-0038 lyophilized product, achiral HPLC; assay type: physicochemical; settings: for Achiral HPLC: Lyophilization 5 mg per ml, 2 ml fill, Water, 1 month; for loss of the lyophilized product: 40° C.; for stability of the lyophilized product: first month
Source text: as §1

[6] = tested on: ovarian cancer malignant lesions; settings: human ovarian cancer patients, intra-operative; cited from earlier work

T1 sequence (P15328 25-234): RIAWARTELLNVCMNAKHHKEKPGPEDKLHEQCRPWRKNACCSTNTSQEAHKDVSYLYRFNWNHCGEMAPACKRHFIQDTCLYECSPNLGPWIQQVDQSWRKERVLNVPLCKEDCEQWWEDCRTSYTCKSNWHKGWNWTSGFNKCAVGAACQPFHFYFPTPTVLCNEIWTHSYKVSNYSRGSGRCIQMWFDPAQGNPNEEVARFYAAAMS

Achiral HPLC ([1]; 5, 270 nm): 95.88% | Achiral HPLC ([1]; 5, 774 nm): 94.29% | Achiral HPLC ([1]; 25, 270 nm): 94.43% | Achiral HPLC ([1]; 25, 774 nm): 94.05% | Achiral HPLC ([1]; 40, 270 nm): 87.17% | Achiral HPLC ([1]; 40, 774 nm): 93.56% | Achiral HPLC ([1]; −20, 270 nm): 95.80% | Achiral HPLC ([1]; −20, 774 nm): 94.59% | stability of the liquid ([1]; 270 nm): seems stable | loss of the liquid ([1]; 40° C., 270 nm): 8.6% | loss of the liquid ([1]; 40° C., 774 nm): 1% | loss of the liquid ([1]; room temperature, 270 nm): about 1.4% | loss of the liquid ([1]; room temperature, 774 nm): 0.5% | competition with [3H] folic acid (folate receptors; KB cells): competed well | Kd (folate receptors): 10.4 nM | Relative binding affinity (folate receptors): 0.71 | Achiral HPLC ([5]; 5, 270 nm): 95.88% | Achiral HPLC ([5]; 5, 774 nm): 94.29% | Achiral HPLC ([5]; 25, 270 nm): 94.43% | Achiral HPLC ([5]; 25, 774 nm): 94.05% | Achiral HPLC ([5]; 40, 270 nm): 87.17% | Achiral HPLC ([5]; 40, 774 nm): 93.56% | Achiral HPLC ([5]; −20, 270 nm): 95.80% | Achiral HPLC ([5]; −20, 774 nm): 94.59% | loss of the lyophilized product ([5]; 270 nm): 4.5% | loss of the lyophilized product ([5]; 774 nm): 1.1% | stability of the lyophilized product ([5]; room temperature): stable at the first month
Compound: CC1(C)C(=CC=C2CCCC(C=CC3=[N+](CCCCS(=O)(=O)[O-])c4ccc(S(=O)(=O)O)cc4C3(C)C)=C2Oc2ccc(C[C@H](NC(=O)c3ccc(NCc4cnc5nc(N)[nH]c(=O)c5n4)cc3)C(=O)O)cc2)N(CCCCS(=O)(=O)O)c2ccc(S(=O)(=O)O)cc21 [OTL-0038, PTE-L-Tyr-S0456]
stability of the liquid ([1]; 774 nm): reasonably stable with a small degradation in purity | tumor uptake (ex vivo fluorescence) ([2]; A549 folate receptor negative tumors, 10 nmol, 2.5 h): no fluorescence was observed in folate receptor negative tumors | in vivo specificity for folate receptor ([2]; conclusion of the folate receptor-negative tumor study): highly specific for folate receptor | kidney uptake (ex vivo fluorescence) ([2]; folate receptor-positive kidneys, 10 nmol, 2.5 h): high kidney uptake | Whole body imaging: accumulation of fluorescence ([2]; nude mice, A549 tumors, 10 nmol intravenously, 2.5 h): did not accumulated in the folate receptor negative tumors | tumor fluorescence intensity, direct comparison ([3]; 10 nmol): brighter (higher) than the mice treated with the other folate-conjugated near IR dyes | Whole body imaging: accumulation of fluorescence ([3]; 10 nmol intravenously, 2.5 hours): accumulated predominantly in the folate receptor positive tumors | Whole body imaging: accumulation of fluorescence [4]: accumulated predominantly in the folate receptor positive tumors, with no substantial fluorescence activity in the other tissues | Tissue biodistribution: fluorescence in dissected tissues ([4]; ex vivo IVIS): highest fluorescence intensity was observed in FR-positive tumors with no accumulation in the other tissues except the kidneys; also recorded: mainly accumulated in folate receptor positive tumor xenografts and kidneys | stability of the lyophilized product ([5]; less than room temperature): stable at less than room temperature for the first month

Kd (folate receptors): 81.8 nM | Relative binding affinity (folate receptors): 0.09
Compound: CC1(C)C(=CC=C2CCCC(C=CC3=[N+](CCCCS(=O)(=O)[O-])c4ccc(S(=O)(=O)O)cc4C3(C)C)=C2Oc2ccc(C[C@@H](NC(=O)c3ccc(NCc4cnc5nc(N)[nH]c(=O)c5n4)cc3)C(=O)O)cc2)N(CCCCS(=O)(=O)O)c2ccc(S(=O)(=O)O)cc21 [OTL-0039, PTE-D-Tyr-S0456]
affinity for folate receptor, comparison in words (folate receptors; KB cells): lower affinity for folate receptor when compared to folic acid and OTL-0038

Compound: folate-ethelenediamine-fluorescein isothiocyanate [EC17]
malignant lesions removed with the aid of the dye than without it [6]: ~5 ×
